The NIST ThermoML archive (doi:10.1016/j.fluid.2007.06.001)

Key:
[1] = 353.15 K; Liquid
[2] = excess molar enthalpy (molar enthalpy of mixing); xn = mol fraction of the nth substance listed; settings: Liquid

CCCCCCCC [octane]
Settings	vapor or sublimation pressure [kPa]
[1]	23.16

CCCCCC[n+]1ccn(C)c1.O=S(=O)([N-]S(=O)(=O)C(F)(F)F)C(F)(F)F + CCC(C)=O
[2], 353.15 K, 101 kPa
Settings	excess molar enthalpy [kcal/mol]
x2 = 0.02	-0.0125
x2 = 0.05	-0.0296
x2 = 0.1	-0.0578
x2 = 0.15	-0.0902
x2 = 0.2001	-0.12
x2 = 0.3001	-0.17
x2 = 0.4001	-0.215
x2 = 0.5001	-0.25
x2 = 0.6001	-0.274
x2 = 0.7001	-0.278
x2 = 0.8001	-0.255
x2 = 0.9	-0.181
x2 = 0.95	-0.114

CCCC[n+]1ccn(C)c1.O=S(=O)([N-]S(=O)(=O)C(F)(F)F)C(F)(F)F + CC1CCCCC1
[2], 363.15 K, 101.3 kPa
Settings	excess molar enthalpy [kcal/mol]
x2 = 0.1067	0.111
x2 = 0.2014	0.148
x2 = 0.2449	0.143
x2 = 0.286	0.137
x2 = 0.3621	0.123
x2 = 0.4308	0.111
x2 = 0.4932	0.099
x2 = 0.6022	0.0773
x2 = 0.6942	0.0587
x2 = 0.773	0.0439
x2 = 0.872	0.0258

CCCC[n+]1ccn(C)c1.O=S(=O)([N-]S(=O)(=O)C(F)(F)F)C(F)(F)F + Cc1ccccc1
[2], 363.15 K, 101 kPa
Settings	excess molar enthalpy [kcal/mol]
x2 = 0.0653	-0.023
x2 = 0.1255	-0.0435
x2 = 0.1811	-0.0624
x2 = 0.2325	-0.0772
x2 = 0.2803	-0.0908
x2 = 0.3249	-0.101
x2 = 0.4054	-0.122
x2 = 0.4761	-0.133
x2 = 0.5389	-0.139
x2 = 0.6451	-0.135
x2 = 0.7317	-0.108
x2 = 0.8035	-0.0824
x2 = 0.8911	-0.0447
x2 = 0.9608	-0.0171

CCCC[n+]1ccn(C)c1.O=S(=O)([N-]S(=O)(=O)C(F)(F)F)C(F)(F)F + CCCCCC
[2], 363.15 K, 101.3 kPa
Settings	excess molar enthalpy [kcal/mol]
x2 = 0.02	0.0134
x2 = 0.0501	0.0353
x2 = 0.1002	0.0689
x2 = 0.1503	0.0949
x2 = 0.2003	0.109
x2 = 0.3004	0.0941
x2 = 0.5004	0.0662
x2 = 0.7004	0.038
x2 = 0.9002	0.0116

CCCC[n+]1ccn(C)c1.O=S(=O)([N-]S(=O)(=O)C(F)(F)F)C(F)(F)F + c1ccccc1
[2], 101.3 kPa
Settings	excess molar enthalpy [kcal/mol]
363.15 K, x2 = 0.0498	-0.0235
363.15 K, x2 = 0.0997	-0.0451
363.15 K, x2 = 0.1495	-0.0678
363.15 K, x2 = 0.1994	-0.0875
363.15 K, x2 = 0.2992	-0.127
363.15 K, x2 = 0.4491	-0.176
363.15 K, x2 = 0.5991	-0.206
363.15 K, x2 = 0.6992	-0.198
363.15 K, x2 = 0.7994	-0.147
363.15 K, x2 = 0.8495	-0.112
363.15 K, x2 = 0.8997	-0.0716
363.15 K, x2 = 0.9498	-0.0353
413.15 K, x2 = 0.1462	-0.0688
413.15 K, x2 = 0.2087	-0.0954
413.15 K, x2 = 0.2654	-0.12
413.15 K, x2 = 0.3172	-0.142
413.15 K, x2 = 0.3647	-0.166
413.15 K, x2 = 0.4485	-0.196
413.15 K, x2 = 0.5202	-0.212
413.15 K, x2 = 0.5823	-0.22
413.15 K, x2 = 0.6844	-0.217
413.15 K, x2 = 0.7648	-0.186
413.15 K, x2 = 0.8299	-0.142
413.15 K, x2 = 0.907	-0.0792
413.15 K, x2 = 0.967	-0.0313

CCCC[n+]1ccn(C)c1.O=S(=O)([N-]S(=O)(=O)C(F)(F)F)C(F)(F)F + CC(C)=O
[2], 353.15 K, 101 kPa
Settings	excess molar enthalpy [kcal/mol]
x2 = 0.05	-0.031
x2 = 0.0999	-0.0608
x2 = 0.1499	-0.092
x2 = 0.1999	-0.122
x2 = 0.2998	-0.175
x2 = 0.4498	-0.248
x2 = 0.5998	-0.291
x2 = 0.6998	-0.296
x2 = 0.7999	-0.265
x2 = 0.8499	-0.235
x2 = 0.8999	-0.186
x2 = 0.95	-0.118

CCn1cc[n+](C)c1.O=S(=O)([N-]S(=O)(=O)C(F)(F)F)C(F)(F)F + CCCCCC
[2], 353.15 K, 101.3 kPa
Settings	excess molar enthalpy [kcal/mol]
x2 = 0.0239	0.0297
x2 = 0.0472	0.0535
x2 = 0.07	0.066
x2 = 0.0923	0.0787
x2 = 0.1354	0.0756
x2 = 0.2162	0.0688
x2 = 0.3916	0.0521
x2 = 0.6588	0.0288
x2 = 0.8528	0.0125

CCCC[n+]1ccn(C)c1.O=S(=O)([N-]S(=O)(=O)C(F)(F)F)C(F)(F)F + CCC(C)=O
[2], 353.15 K, 101 kPa
Settings	excess molar enthalpy [kcal/mol]
x2 = 0.0508	-0.0292
x2 = 0.1015	-0.0592
x2 = 0.1521	-0.0906
x2 = 0.2026	-0.118
x2 = 0.3035	-0.172
x2 = 0.4541	-0.239
x2 = 0.6039	-0.282
x2 = 0.7034	-0.289
x2 = 0.8026	-0.259
x2 = 0.8521	-0.229
x2 = 0.9015	-0.181
x2 = 0.9508	-0.112
